Structures can show the parent of a compound that is named as a salt.
The molecules below were run against recombinant human HPK1 (Homo sapiens (Human), UniProt Q92918) (assay: HPK1 kinase assay (Promega ADP-Glo kinase assay)). Details: In vitro activity against HPK1, 5 ng HPK1, MBP substrate, ATP 25 μM, 30° C. 40 minutes.
Type: biochemical
Outline: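 ADP-Glo luminescence assay with 5 ng recombinant human HPK1, MBP substrate and ATP (added as 25 µM solution) in Tris pH 7.5, 20 mM MgCl2, BSA, DTT, 0.5% DMSO. Reaction ran 40 min at 30 °C. IC50 was fitted from percent inhibition over an inhibitor concentration range.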

recombinant human HPK1, sequence (Q92918 whole entry): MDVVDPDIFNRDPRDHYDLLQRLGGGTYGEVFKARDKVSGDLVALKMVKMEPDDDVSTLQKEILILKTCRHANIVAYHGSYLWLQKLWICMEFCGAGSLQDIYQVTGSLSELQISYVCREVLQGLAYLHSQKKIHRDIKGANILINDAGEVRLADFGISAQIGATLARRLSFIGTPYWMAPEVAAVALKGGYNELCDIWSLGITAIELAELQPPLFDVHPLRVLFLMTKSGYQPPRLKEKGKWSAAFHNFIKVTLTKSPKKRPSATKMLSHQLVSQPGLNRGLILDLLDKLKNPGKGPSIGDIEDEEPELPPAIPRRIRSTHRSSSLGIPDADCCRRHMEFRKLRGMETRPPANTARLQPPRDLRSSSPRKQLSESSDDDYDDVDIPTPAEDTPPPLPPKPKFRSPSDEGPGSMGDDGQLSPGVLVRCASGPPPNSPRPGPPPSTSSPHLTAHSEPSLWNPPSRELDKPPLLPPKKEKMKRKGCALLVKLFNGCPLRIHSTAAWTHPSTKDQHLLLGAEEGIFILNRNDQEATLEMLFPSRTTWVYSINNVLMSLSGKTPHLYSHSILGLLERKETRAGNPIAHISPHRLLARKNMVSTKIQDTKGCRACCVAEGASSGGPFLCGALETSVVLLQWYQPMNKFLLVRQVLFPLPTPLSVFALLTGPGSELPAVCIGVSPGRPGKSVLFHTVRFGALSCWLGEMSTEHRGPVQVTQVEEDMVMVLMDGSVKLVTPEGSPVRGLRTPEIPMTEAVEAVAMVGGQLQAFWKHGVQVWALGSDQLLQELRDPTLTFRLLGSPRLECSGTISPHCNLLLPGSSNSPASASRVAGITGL

IC50 | Structure (SMILES)
< 0.1 µM | CC(C)Nc1c(F)c(Cl)c(-c2cn3cc(NC(=O)CO)nc3cn2)c2cn[nH]c12 [Example 129, N-(6-(5-chloro-6-fluoro-7-(isopropylamino)-1H-indazol-4-yl)imidazo[1,2-a]pyrazin-2-yl)-2-hydroxyacetamide]
< 0.1 µM | CC(C)Nc1c(F)c(Cl)c(-c2cn3cc(NC(=O)CCO)nc3cn2)c2cn[nH]c12 [Example 130, N-(6-(5-chloro-6-fluoro-7-(isopropylamino)-1H-indazol-4-yl)imidazo[1,2-a]pyrazin-2-yl)-3-hydroxypropanamide]
< 0.1 µM | CC(C)Nc1c(F)c(Cl)c(-c2cn3cc(NC(=O)C4COC4)nc3cn2)c2cn[nH]c12 [Example 131, N-(6-(5-chloro-6-fluoro-7-(isopropylamino)-1H-indazol-4-yl)imidazo[1,2-a]pyrazin-2-yl)oxetane-3-carboxamide]
< 0.1 µM | C[C@H](N[S@@+]([O-])C(C)(C)C)c1c(F)c(Cl)c(-c2cn3cc(NC(=O)[C@@H]4C[C@@H]4F)nc3cn2)c2cn[nH]c12 [Example 132, (1S,2S)-N-(6-(7-((S)-1-(((S)-tert-butylsulfinyl)amino)ethyl)-5-chloro-6-fluoro-1H-indazol-4-yl)imidazo[1,2-a]pyrazin-2-yl)-2-fluorocyclopropane-1-carboxamide]
< 0.1 µM | C[C@@H](N[S@+]([O-])C(C)(C)C)c1c(F)c(Cl)c(-c2cn3cc(NC(=O)[C@@H]4C[C@@H]4F)nc3cn2)c2cn[nH]c12 [Example 133, (1S,2S)-N-(6-(7-((R)-1-(((R)-tert-butylsulfinyl)amino)ethyl)-5-chloro-6-fluoro-1H-indazol-4-yl)imidazo[1,2-a]pyrazin-2-yl)-2-fluorocyclopropane-1-carboxamide]
0.101 to 0.5 µM | CC(=O)Nc1cn2cc(-c3c(Cl)c(F)c([C@H](C)N[S@@+]([O-])C(C)(C)C)c4[nH]ncc34)ncc2n1 [Example 134, N-(6-(7-((S)-1-(((S)-tert-butylsulfinyl)amino)ethyl)-5-chloro-6-fluoro-1H-indazol-4-yl)imidazo[1,2-a]pyrazin-2-yl)acetamide]
< 0.1 µM | CC(=O)Nc1cn2cc(-c3c(Cl)c(F)c([C@@H](C)N[S@+]([O-])C(C)(C)C)c4[nH]ncc34)ncc2n1 [Example 135, N-(6-(7-((R)-1-(((R)-tert-butylsulfinyl)amino)ethyl)-5-chloro-6-fluoro-1H-indazol-4-yl)imidazo[1,2-a]pyrazin-2-yl)acetamide]
< 0.1 µM | COc1c(F)c(N(C)C)c2[nH]ncc2c1-c1cn2cc(NC(=O)[C@@H]3C[C@@H]3F)nc2cn1 [Example 136, (1S,2S)-N-(6-(7-(dimethylamino)-6-fluoro-5-methoxy-1H-indazol-4-yl)imidazo[1,2-a]pyrazin-2-yl)-2-fluorocyclopropane-1-carboxamide]
< 0.1 µM | C[C@@H](NC(=O)C(F)(F)F)c1c(F)c(Cl)c(-c2cn3cc(NC(=O)[C@@H]4C[C@@H]4F)nc3cn2)c2cn[nH]c12 [Example 137, (1S,2S)-N-(6-(5-chloro-6-fluoro-7-((R)-1-(2,2,2-trifluoroacetamido)ethyl)-1H-indazol-4-yl)imidazo[1,2-a]pyrazin-2-yl)-2-fluorocyclopropane-1-carboxamide]
< 0.1 µM | CC(=O)Nc1cn2cc(-c3c(Cl)c(F)c([C@H](C)NC(=O)C(F)(F)F)c4[nH]ncc34)ncc2n1 [Example 138, (S)-N-(1-(4-(2-acetamidoimidazo[1,2-a]pyrazin-6-yl)-5-chloro-6-fluoro-1H-indazol-7-yl)ethyl)-2,2,2-trifluoroacetamide]
< 0.1 µM | CC(=O)Nc1cn2cc(-c3c(Cl)c(F)c([C@@H](C)NC(=O)C(F)(F)F)c4[nH]ncc34)ncc2n1 [Example 139, (R)-N-(1-(4-(2-acetamidoimidazo[1,2-a]pyrazin-6-yl)-5-chloro-6-fluoro-1H-indazol-7-yl)ethyl)-2,2,2-trifluoroacetamide]
< 0.1 µM | CC(=O)Nc1cn2cc(-c3c(Cl)c(F)c([C@H](C)NC=O)c4[nH]ncc34)ncc2n1 [Example 140, (S)-N-(6-(5-chloro-6-fluoro-7-(1-formamidoethyl)-1H-indazol-4-yl)imidazo[1,2-a]pyrazin-2-yl)acetamide]
< 0.1 µM | COc1c(F)c(NC(C)C)c2[nH]ncc2c1-c1cn2cc(NC(=O)[C@@H]3C[C@@H]3F)nc2cn1 [Example 141, (1S,2S)-2-fluoro-N-(6-(6-fluoro-7-(isopropylamino)-5-methoxy-1H-indazol-4-yl)imidazo[1,2-a]pyrazin-2-yl)cyclopropane-1-carboxamide]
0.101 to 0.5 µM | CC(=O)N1CC(Oc2c(F)c(Cl)c(-c3cn4cc(NC(=O)[C@@H]5C[C@@H]5F)nc4cn3)c3cn[nH]c23)C1 [Example 142, (1S,2S)-N-(6-(7-((1-acetylazetidin-3-yl)oxy)-5-chloro-6-fluoro-1H-indazol-4-yl)imidazo[1,2-a]pyrazin-2-yl)-2-fluorocyclopropane-1-carboxamide]
0.501 to 1 µM | O=C(Nc1cn2cc(-c3c(Cl)c(F)c(OC4CNC4)c4[nH]ncc34)ncc2n1)[C@@H]1C[C@@H]1F [Example 143, (1S,2S)-N-(6-(7-(azetidin-3-yloxy)-5-chloro-6-fluoro-1H-indazol-4-yl)imidazo[1,2-a]pyrazin-2-yl)-2-fluorocyclopropane-1-carboxamide formate]
< 0.1 µM | CC(C)Nc1c(F)c(Cl)c(-c2cn3cc(NC(=O)Cc4cocn4)nc3cn2)c2cn[nH]c12 [Example 144, N-(6-(5-chloro-6-fluoro-7-(isopropylamino)-1H-indazol-4-yl)imidazo[1,2-a]pyrazin-2-yl)-2-(oxazol-4-yl)acetamide]
0.501 to 1 µM | CC(=O)Nc1cn2cc(-c3c(Cl)c(F)c(OC4CN(C(C)=O)C4)c4[nH]ncc34)ncc2n1 [Example 145, N-(6-(7-((1-acetylazetidin-3-yl)oxy)-5-chloro-6-fluoro-1H-indazol-4-yl)imidazo[1,2-a]pyrazin-2-yl)acetamide]
< 0.1 µM | C[C@H](NC(=O)C(F)(F)F)c1c(F)c(Cl)c(-c2cn3cc(NC(=O)[C@@H]4C[C@@H]4F)nc3cn2)c2cn[nH]c12 [Example 146, (1S,2S)-N-(6-(5-chloro-6-fluoro-7-((S)-1-(2,2,2-trifluoroacetamido)ethyl)-1H-indazol-4-yl)imidazo[1,2-a]pyrazin-2-yl)-2-fluorocyclopropane-1-carboxamide]
0.501 to 1 µM | CC(=O)Nc1cn2cc(-c3c(Cl)c(F)c(OC4CNC4)c4[nH]ncc34)ncc2n1 [Example 147, N-(6-(7-(azetidin-3-yloxy)-5-chloro-6-fluoro-1H-indazol-4-yl)imidazo[1,2-a]pyrazin-2-yl)acetamide formate]
0.501 to 1 µM | CC(=O)Nc1cn2cc(-c3c(Cl)c(F)c(OC4CN(C(=O)CO)C4)c4[nH]ncc34)ncc2n1 [Example 148, N-(6-(5-chloro-6-fluoro-7-((1-(2-hydroxyacetyl)azetidin-3-yl)oxy)-1H-indazol-4-yl)imidazo[1,2-a]pyrazin-2-yl)acetamide]
0.501 to 1 µM | CCC(=O)N1CC(Oc2c(F)c(Cl)c(-c3cn4cc(NC(C)=O)nc4cn3)c3cn[nH]c23)C1 [Example 149, N-(6-(5-chloro-6-fluoro-7-((1-propionylazetidin-3-yl)oxy)-1H-indazol-4-yl)imidazo[1,2-a]pyrazin-2-yl)acetamide]
0.501 to 1 µM | CC(=O)Nc1cn2cc(-c3c(Cl)c(F)c(CN4CC(O)C4)c4[nH]ncc34)ncc2n1 [Example 150, N-(6-(5-chloro-6-fluoro-7-((3-hydroxyazetidin-1-yl)methyl)-1H-indazol-4-yl)imidazo[1,2-a]pyrazin-2-yl)acetamide]
0.501 to 1 µM | CC(=O)Nc1cn2cc(-c3c(Cl)c(F)c(CN4CCC(O)C4)c4[nH]ncc34)ncc2n1 (stereo not drawn) [Example 151, N-(6-(5-chloro-6-fluoro-7-((3-hydroxypyrrolidin-1-yl)methyl)-1H-indazol-4-yl)imidazo[1,2-a]pyrazin-2-yl)acetamide]
< 0.1 µM | CC(=O)Nc1cn2cc(-c3c(Cl)c(F)c(C(O)C4CC4)c4[nH]ncc34)ncc2n1 (stereo not drawn) [Example 152, N-(6-(5-chloro-7-(cyclopropyl(hydroxy)methyl)-6-fluoro-1H-indazol-4-yl)imidazo[1,2-a]pyrazin-2-yl)acetamide]
< 0.1 µM | CC(=O)Nc1cn2cc(-c3c(C(F)F)c(F)c(NC(C)C)c4[nH]ncc34)ncc2n1 [Example 153, N-(6-(5-(difluoromethyl)-6-fluoro-7-(isopropylamino)-1H-indazol-4-yl)imidazo[1,2-a]pyrazin-2-yl)acetamide]
< 0.1 µM | CC(C)Nc1c(F)c(C(F)F)c(-c2cn3cc(NC(=O)[C@@H]4C[C@@H]4C#N)nc3cn2)c2cn[nH]c12 [Example 154, (1R,2S)-2-cyano-N-(6-(5-(difluoromethyl)-6-fluoro-7-(isopropylamino)-1H-indazol-4-yl)imidazo[1,2-a]pyrazin-2-yl)cyclopropane-1-carboxamide]
< 0.1 µM | CCC(=O)Nc1cn2cc(-c3c(C(F)F)c(F)c(NC(C)C)c4[nH]ncc34)ncc2n1 [Example 155, N-(6-(5-(difluoromethyl)-6-fluoro-7-(isopropylamino)-1H-indazol-4-yl)imidazo[1,2-a]pyrazin-2-yl)propionamide]
< 0.1 µM | CC(C)Nc1c(F)c(C(F)F)c(-c2cn3cc(NC(=O)C4CC4)nc3cn2)c2cn[nH]c12 [Example 156, N-(6-(5-(difluoromethyl)-6-fluoro-7-(isopropylamino)-1H-indazol-4-yl)imidazo[1,2-a]pyrazin-2-yl)cyclopropanecarboxamide]
0.501 to 1 µM | CC(=O)Nc1cn2cc(-c3c(Cl)c(F)c(CN4CC(C)(O)C4)c4[nH]ncc34)ncc2n1 [Example 157, N-(6-(5-chloro-6-fluoro-7-((3-hydroxy-3-methylazetidin-1-yl)methyl)-1H-indazol-4-yl)imidazo[1,2-a]pyrazin-2-yl)acetamide]
< 0.1 µM | COc1c(F)c(NC(C)C)c2[nH]ncc2c1-c1cn2cc(NC(C)=O)nc2cn1 [Example 158, N-(6-(6-fluoro-7-(isopropylamino)-5-methoxy-1H-indazol-4-yl)imidazo[1,2-a]pyrazin-2-yl)acetamide]
